Laboratory results from ChEMBL document CHEMBL3885881, “DrugMatrix”.

Organism: Rattus norvegicus
Assay: DrugMatrix - Regimen: Daily Repeat
Format: toxicity, organism-based, Sprague-Dawley
Set-up: regimen Daily Repeat, gender Male, age 6-8 weeks
Conditions: in vivo, po, route oral GAVAGE, vehicle 100 % WATER; for BASOPHIL / EOSINOPHIL / ERYTHROCYTE COUNT / HEMATOCRIT / HEMOGLOBIN / LEUKOCYTE COUNT / LYMPHOCYTE / MEAN CORPUSCULAR HEMOGLOBIN / MEAN CORPUSCULAR HEMOGLOBIN CONCENTRATION / MEAN CORPUSCULAR VOLUME / MONOCYTE / NEUTROPHIL / PLATELET COUNT: tissue Blood; for ALANINE AMINOTRANSFERASE / ALBUMIN / ALKALINE PHOSPHATASE / ASPARTATE AMINOTRANSFERASE / BLOOD UREA NITROGEN / CHLORIDE / CHOLESTEROL / CREATINE PHOSPHOKINASE / CREATININE / GLUCOSE / PHOSPHORUS / POTASSIUM / SODIUM / TOTAL BILIRUBIN / TOTAL PROTEIN: tissue Plasma
[1] = 0 mg/kg, 72 h, dose level Control, time 3 day
[2] = 0 mg/kg, 120 h, dose level Control, time 5 day
[3] = 3 mg/kg, 72 h, dose level Low, time 3 day
[4] = 3 mg/kg, 120 h, dose level Low, time 5 day
[5] = 24 mg/kg, 72 h, dose level High, time 3 day
[6] = 24 mg/kg, 120 h, dose level High, time 5 day

Compound: Nc1c2c(nc3ccccc13)CCCC2 [TACRINE]
- BASOPHIL [1]: 0%
- EOSINOPHIL [1]: 0.5%
- ERYTHROCYTE COUNT [1]: 5.8 x10E6/uL
- HEMATOCRIT [1]: 35.07%
- HEMOGLOBIN [1]: 14.12 G/DL
- LEUKOCYTE COUNT [1]: 13.7 x10E3/uL
- LYMPHOCYTE [1]: 82.33%
- MEAN CORPUSCULAR HEMOGLOBIN [1]: 24.38 pg
- MEAN CORPUSCULAR HEMOGLOBIN CONCENTRATION [1]: 40.28 G/DL
- MEAN CORPUSCULAR VOLUME [1]: 60.52 fL
- MONOCYTE [1]: 2.67%
- NEUTROPHIL [1]: 14.5%
- PLATELET COUNT [1]: 911.5 x10E3/uL
- ALANINE AMINOTRANSFERASE [1]: 36.83 u/L
- ALBUMIN [1]: 3.75 G/DL
- ALKALINE PHOSPHATASE [1]: 399.83 u/L
- ASPARTATE AMINOTRANSFERASE [1]: 66 u/L
- BLOOD UREA NITROGEN [1]: 14.67 mg/dL
- CHLORIDE [1]: 101.67 MEQ/L
- CHOLESTEROL [1]: 66.33 mg/dL
- CREATINE PHOSPHOKINASE [1]: 139.5 u/L
- CREATININE [1]: 0.92 mg/dL
- GLUCOSE [1]: 175 mg/dL
- PHOSPHORUS [1]: 11.42 mg/dL
- POTASSIUM [1]: 7.03 MEQ/L
- SODIUM [1]: 148.5 MEQ/L
- TOTAL BILIRUBIN [1]: 1.13 mg/dL
- TOTAL PROTEIN [1]: 6.87 G/DL
- BASOPHIL [2]: 0%
- EOSINOPHIL [2]: 0.2%
- ERYTHROCYTE COUNT [2]: 6.02 x10E6/uL
- HEMATOCRIT [2]: 36.48%
- HEMOGLOBIN [2]: 14.38 G/DL
- LEUKOCYTE COUNT [2]: 12.34 x10E3/uL
- LYMPHOCYTE [2]: 83%
- MEAN CORPUSCULAR HEMOGLOBIN [2]: 23.92 pg
- MEAN CORPUSCULAR HEMOGLOBIN CONCENTRATION [2]: 39.44 G/DL
- MEAN CORPUSCULAR VOLUME [2]: 60.66 fL
- MONOCYTE [2]: 3%
- NEUTROPHIL [2]: 13.8%
- PLATELET COUNT [2]: 1190.6 x10E3/uL
- ALANINE AMINOTRANSFERASE [2]: 43 u/L
- ALBUMIN [2]: 3.73 G/DL
- ALKALINE PHOSPHATASE [2]: 393 u/L
- ASPARTATE AMINOTRANSFERASE [2]: 62.33 u/L
- BLOOD UREA NITROGEN [2]: 16.33 mg/dL
- CHLORIDE [2]: 101.67 MEQ/L
- CHOLESTEROL [2]: 65.5 mg/dL
- CREATINE PHOSPHOKINASE [2]: 130.67 u/L
- CREATININE [2]: 0.58 mg/dL
- GLUCOSE [2]: 180.67 mg/dL
- PHOSPHORUS [2]: 11.28 mg/dL
- POTASSIUM [2]: 7.05 MEQ/L
- SODIUM [2]: 148.17 MEQ/L
- TOTAL BILIRUBIN [2]: 0.72 mg/dL
- TOTAL PROTEIN [2]: 6.83 G/DL
- BASOPHIL [3]: 0%
- EOSINOPHIL [3]: 0.33%
- ERYTHROCYTE COUNT [3]: 5.96 x10E6/uL
- HEMATOCRIT [3]: 36.4%
- HEMOGLOBIN [3]: 14.47 G/DL
- LEUKOCYTE COUNT [3]: 12.6 x10E3/uL
- LYMPHOCYTE [3]: 87.33%
- MEAN CORPUSCULAR HEMOGLOBIN [3]: 24.3 pg
- MEAN CORPUSCULAR HEMOGLOBIN CONCENTRATION [3]: 39.77 G/DL
- MEAN CORPUSCULAR VOLUME [3]: 61.13 fL
- MONOCYTE [3]: 1.67%
- NEUTROPHIL [3]: 10.67%
- PLATELET COUNT [3]: 1303 x10E3/uL
- ALANINE AMINOTRANSFERASE [3]: 36.33 u/L
- ALBUMIN [3]: 3.6 G/DL
- ALKALINE PHOSPHATASE [3]: 362.33 u/L
- ASPARTATE AMINOTRANSFERASE [3]: 59 u/L
- BLOOD UREA NITROGEN [3]: 11.33 mg/dL
- CHLORIDE [3]: 102.67 MEQ/L
- CHOLESTEROL [3]: 64.33 mg/dL
- CREATINE PHOSPHOKINASE [3]: 137.67 u/L
- CREATININE [3]: 0.53 mg/dL
- GLUCOSE [3]: 188 mg/dL
- PHOSPHORUS [3]: 12.8 mg/dL
- POTASSIUM [3]: 7.17 MEQ/L
- SODIUM [3]: 151.33 MEQ/L
- TOTAL BILIRUBIN [3]: 0.37 mg/dL
- BASOPHIL [4]: 0%
- EOSINOPHIL [4]: 0%
- ERYTHROCYTE COUNT [4]: 5.42 x10E6/uL
- HEMATOCRIT [4]: 32.47%
- HEMOGLOBIN [4]: 13.8 G/DL
- LEUKOCYTE COUNT [4]: 15.5 x10E3/uL
- LYMPHOCYTE [4]: 85.67%
- MEAN CORPUSCULAR HEMOGLOBIN [4]: 25.47 pg
- MEAN CORPUSCULAR HEMOGLOBIN CONCENTRATION [4]: 42.53 G/DL
- MEAN CORPUSCULAR VOLUME [4]: 59.87 fL
- MONOCYTE [4]: 2%
- NEUTROPHIL [4]: 12.33%
- PLATELET COUNT [4]: 1161.67 x10E3/uL
- ALANINE AMINOTRANSFERASE [4]: 32 u/L
- ALBUMIN [4]: 3.63 G/DL
- ALKALINE PHOSPHATASE [4]: 344.33 u/L
- ASPARTATE AMINOTRANSFERASE [4]: 54 u/L
- BLOOD UREA NITROGEN [4]: 12.67 mg/dL
- CHLORIDE [4]: 103 MEQ/L
- CHOLESTEROL [4]: 67.33 mg/dL
- CREATINE PHOSPHOKINASE [4]: 106 u/L
- CREATININE [4]: 0.57 mg/dL
- GLUCOSE [4]: 184.33 mg/dL
- PHOSPHORUS [4]: 12.4 mg/dL
- POTASSIUM [4]: 6.33 MEQ/L
- SODIUM [4]: 150.33 MEQ/L
- TOTAL BILIRUBIN [4]: 0.37 mg/dL
- TOTAL PROTEIN [4]: 6.6 G/DL
- BASOPHIL [5]: 0%
- EOSINOPHIL [5]: 0.33%
- ERYTHROCYTE COUNT [5]: 6.15 x10E6/uL
- HEMATOCRIT [5]: 36.57%
- HEMOGLOBIN [5]: 14.57 G/DL
- LEUKOCYTE COUNT [5]: 11.57 x10E3/uL
- LYMPHOCYTE [5]: 88%
- MEAN CORPUSCULAR HEMOGLOBIN [5]: 23.7 pg
- MEAN CORPUSCULAR HEMOGLOBIN CONCENTRATION [5]: 39.83 G/DL
- MEAN CORPUSCULAR VOLUME [5]: 59.5 fL
- MONOCYTE [5]: 2.67%
- NEUTROPHIL [5]: 9%
- PLATELET COUNT [5]: 1311.33 x10E3/uL
- ALANINE AMINOTRANSFERASE [5]: 35.33 u/L
- ALBUMIN [5]: 3.7 G/DL
- ALKALINE PHOSPHATASE [5]: 375 u/L
- ASPARTATE AMINOTRANSFERASE [5]: 63.67 u/L
- BLOOD UREA NITROGEN [5]: 12 mg/dL
- CHLORIDE [5]: 101.67 MEQ/L
- CHOLESTEROL [5]: 59.33 mg/dL
- CREATINE PHOSPHOKINASE [5]: 117 u/L
- CREATININE [5]: 0.53 mg/dL
- GLUCOSE [5]: 189 mg/dL
- PHOSPHORUS [5]: 12.73 mg/dL
- POTASSIUM [5]: 6.83 MEQ/L
- SODIUM [5]: 150 MEQ/L
- TOTAL BILIRUBIN [5]: 0.37 mg/dL
- TOTAL PROTEIN [5]: 6.53 G/DL
- BASOPHIL [6]: 0%
- EOSINOPHIL [6]: 0.33%
- ERYTHROCYTE COUNT [6]: 6.22 x10E6/uL
- HEMATOCRIT [6]: 37.53%
- HEMOGLOBIN [6]: 14.57 G/DL
- LEUKOCYTE COUNT [6]: 11.73 x10E3/uL
- LYMPHOCYTE [6]: 88.33%
- MEAN CORPUSCULAR HEMOGLOBIN [6]: 23.43 pg
- MEAN CORPUSCULAR HEMOGLOBIN CONCENTRATION [6]: 38.8 G/DL
- MEAN CORPUSCULAR VOLUME [6]: 60.47 fL
- MONOCYTE [6]: 2.33%
- NEUTROPHIL [6]: 9%
- PLATELET COUNT [6]: 1085 x10E3/uL
- ALANINE AMINOTRANSFERASE [6]: 38 u/L
- ALBUMIN [6]: 3.53 G/DL
- ALKALINE PHOSPHATASE [6]: 295.33 u/L
- ASPARTATE AMINOTRANSFERASE [6]: 62.67 u/L
- BLOOD UREA NITROGEN [6]: 13.33 mg/dL
- CHLORIDE [6]: 104.67 MEQ/L
- CHOLESTEROL [6]: 62 mg/dL
- CREATINE PHOSPHOKINASE [6]: 114.67 u/L
- CREATININE [6]: 0.6 mg/dL
- GLUCOSE [6]: 171 mg/dL
- PHOSPHORUS [6]: 12.57 mg/dL
- POTASSIUM [6]: 6.4 MEQ/L
- SODIUM [6]: 152.33 MEQ/L
- TOTAL BILIRUBIN [6]: 0.27 mg/dL
- TOTAL PROTEIN [6]: 6.33 G/DL
